Experiments:
[1] = system: Female Sprague–Dawley rats; test: Acute oral toxicity assessment (OECD 423)
Experimental: The temperature in the experimental animal room was 22 ± 1 °C and the relative humidity was 60% ± 5%, additionally, lighting conditions was 12-h light/dark cycle.
Twenty-four rats were randomly divided into five groups. Six rats were in the control group as well as the high-dose groups, and three rats were in the low-dose groups. Before the experiment, all rats needed to be […] overnight. Briefly, the control group received distilled water while experimental groups were orally treated with test compounds at a single dose of 300 mg/kg 5-HMF, 300 mg/kg DHMF, 2000 mg/kg 5-HMF, and 2000 mg/kg DHMF, respectively. The animals were monitored periodically during the first 24 h, especially the opening 30 min and 4 h, after drug oral treatment for any signs of toxicity. The rats were further observed for 14 days. Moreover, the body weight was measured at the first and last day. At the end of experiment, all rats were anaesthetized and their brains, hearts, lungs, livers, kidneys, and spleens were collected, weighed and observed macroscopically.

[2] = Cytotoxicity test, MTT, 24 h; type: cell-based; conditions: human
Experimental: (§1) Cell lines HCT-8 (3111C0001CCC000104) and A549 (3131C0001000700150) were obtained from National Infrastructure of Cell Line Resource (Beijing, China). SGC-7901 cell line was purchased from Suer Shengwu (Shanghai, China). All cells maintained in a humidified atmosphere at 37 °C and 5% CO2 in RPMI 1640 supplemented with 10% FBS and 1% Penicillin–Streptomycin solution. Cells were seeded in 96-well plates at a density of 8 * 10^3 cells per well and then incubated with various concentrations of 5-HMF and DHMF (Additional file 2: Table S2) for 24 h, respectively. Subsequently, culture supernatant was removed. HCT-8 cells were incubated in 100 μL fresh basal medium and 10 μL CCK-8 solution at 37 ℃ for 2 h. The optical density (OD) value of each well was measured at 450 nm using spectrophotometer (Multiskan Go 1510, Thermo, US); A549 and SGC-7901 cells were incubated in 100 μL MTT solution (1 mg/mL) at 37 ℃ for 4 h. Subsequently, the liquid was removed and dissolved the formazan with 150 μL DMSO, and the OD value was measured at 490 nm. Cell viability was given in a percentage of the control group. All data repeated for three times.

[3] = Cytotoxicity test, CCK-8, 24 h; type: cell-based; conditions: human, HCT-8 cells
Experimental: as §1

[4] = system: human skin fibroblast cells; set-up: method as in Frade et al. [2014]; conditions: ref Frade et al. [2014]; cited from earlier work
[5] = system: mice; set-up: method as in Bauer Marinovic et al. [2012]; conditions: dose up to 536 mg/kg, drinking water for 12 weeks, ref Bauer Marinovic et al. [2012]; cited from earlier work
[6] = rats, 300 mg/kg single oral dose, after 14 days, n = 3
[7] = rats, 2000 mg/kg single oral dose, after 14 days, n = 6

**Q.** For `OCc1ccc(CO)o1` [DHMF, 2,5-dihydroxymethylfuran], which “Organs index, Brain” value [1, 6] is on record?
**A.** 0.68 ± 0.09 g/100 g of body weight

**Q.** And the “Organs index, Heart” value [1, 6]?
**A.** 0.32 ± 0.02 g/100 g of body weight

**Q.** And the “Organs index, Kidney” value [1, 6]?
**A.** 0.75 ± 0.07 g/100 g of body weight

**Q.** What about the “Organs index, Liver” value [1, 6] of the same molecule?
**A.** 3.04 ± 0.26 g/100 g of body weight

**Q.** And the “Organs index, Lung” value [1, 6]?
**A.** 0.47 ± 0.01 g/100 g of body weight

**Q.** What about the “Organs index, Spleen” value [1, 6] of the same molecule?
**A.** 0.22 ± 0.04 g/100 g of body weight

**Q.** What about the “Organs index, Brain” value [1, 7] of the same molecule?
**A.** 0.79 ± 0.07 g/100 g of body weight

**Q.** What about the “Organs index, Heart” value [1, 7] of the same molecule?
**A.** 0.32 ± 0.04 g/100 g of body weight

**Q.** What about the “Organs index, Kidney” value [1, 7] of the same molecule?
**A.** 0.75 ± 0.06 g/100 g of body weight

**Q.** And the “Organs index, Liver” value [1, 7]?
**A.** 3.05 ± 0.17 g/100 g of body weight

**Q.** And the “Organs index, Lung” value [1, 7]?
**A.** 0.49 ± 0.03 g/100 g of body weight

**Q.** What about the “Organs index, Spleen” value [1, 7] of the same molecule?
**A.** 0.22 ± 0.02 g/100 g of body weight

**Q.** What about the Abnormal behaviours ([1]; rats, single oral dose 300 mg/kg, first 4 h, n = 3) of the same molecule?
**A.** During the first 30 min, all rats became quitter and slightly weaker than the control, and returned to normal within 1 h

**Q.** And the Abnormal behaviours ([1]; rats, single oral dose 2000 mg/kg, first 4 h, n = 6)?
**A.** In the first 30 min, all rats were more active than control, then showed lethargic and dilatoriness, yet returned to normal after 30 min

**Q.** What about the LD50 cut-off ([1]; rats, single oral dose, OECD 423 annex 2c, starting dose 300 mg/kg) of the same molecule?
**A.** greater than 2000 mg/kg B.W.

**Q.** What about the IC50 at 24 h ([2]; A549 cells) of the same molecule?
**A.** 0.697 mM

**Q.** What about the IC50 at 24 h ([2]; SGC-7901 cells) of the same molecule?
**A.** 0.33 mM

**Q.** What about the IC50 at 24 h [3] of the same molecule?
**A.** 26.6 mM

**Q.** What does the source list for `O=Cc1ccc(CO)o1` [5-HMF, 5-hydroxymethylfurfural]?
**A.** Abnormal behaviours ([1]; female, Sprague-Dawley, rat, in vivo, po, 300 mg/kg): During the first 30 min, all rats became quitter and slightly weaker than the control, and returned to normal within 1 h; Abnormal behaviours ([1]; female, Sprague-Dawley, rat, in vivo, po, 2000 mg/kg): Rat numbered 1 emerged convulsions, lethargy, convulsions, and limb weakness during the first 30 min, showed somnolence and decrease of animal heat in the next 30 min; others only behaved a quiet symptom, all rats returned to normal within 1 h; LD50 cut-off ([1]; rat, in vivo, po, 300 mg/kg): greater than 2000 mg/kg B.W.; Organs index, Brain ([1]; rat, in vivo, po, 300 mg/kg): 0.74 ± 0.02 g/100 g of body weight; Organs index, Heart ([1]; rat, in vivo, po, 300 mg/kg): 0.35 ± 0.03 g/100 g of body weight; Organs index, Kidney ([1]; rat, in vivo, po, 300 mg/kg): 0.75 ± 0.06 g/100 g of body weight; Organs index, Liver ([1]; rat, in vivo, po, 300 mg/kg): 3.06 ± 0.19 g/100 g of body weight; Organs index, Lung ([1]; rat, in vivo, po, 300 mg/kg): 0.52 ± 0.02 g/100 g of body weight; Organs index, Spleen ([1]; rat, in vivo, po, 300 mg/kg): 0.25 ± 0.01 g/100 g of body weight; Organs index, Brain ([1]; rat, in vivo, po, 2000 mg/kg): 0.74 ± 0.05 g/100 g of body weight; Organs index, Heart ([1]; rat, in vivo, po, 2000 mg/kg): 0.33 ± 0.02 g/100 g of body weight; Organs index, Kidney ([1]; rat, in vivo, po, 2000 mg/kg): 0.75 ± 0.07 g/100 g of body weight; Organs index, Liver ([1]; rat, in vivo, po, 2000 mg/kg): 2.83 ± 0.09 g/100 g of body weight; Organs index, Lung ([1]; rat, in vivo, po, 2000 mg/kg): 0.51 ± 0.04 g/100 g of body weight; Organs index, Spleen ([1]; rat, in vivo, po, 2000 mg/kg): 0.25 ± 0.06 g/100 g of body weight; Mortality ([1]; rats, single oral dose 300 or 2000 mg/kg, 14-day observation): none of the rats died; IC50 at 24 h ([2]; A549 cells): 7.14 mM; IC50 at 24 h ([2]; SGC-7901 cells): 8.42 mM; Cytotoxicity [4]: none cytotoxic; Nephrotoxic effects [5]: mild nephrotoxic effects; IC50 at 24 h [3]: 9.94 mM
